Laboratory results from ChEMBL document CHEMBL1156829 (Proc Natl Acad Sci U S A, 2008).

Legend:
Plasmodium falciparum [1] = test: NOVARTIS: Inhibition of Plasmodium falciparum W2 (drug-resistant) proliferation in erythrocyte-based infection assay; format: functional, organism-based; details: Plasmodium falciparum, W2; read-out: EC50
[2] = NOVARTIS: Cytotoxicity against human hepatocellular carcinoma cell line (Huh7); format: toxicity, cell-based, Huh-7; details: Huh7 cells (hepatocellular carcinoma cell line)
Plasmodium falciparum [3] = test: NOVARTIS: Inhibition of Plasmodium falciparum 3D7 (drug-susceptible) proliferation in erythrocyte-based infection assay; format: functional, organism-based; details: Plasmodium falciparum, 3D7

| SMILES | EC50 (Plasmodium falciparum [1]) [nM] | CC50 [2] [µM] | EC50 (Plasmodium falciparum [3]) [nM] |
| --- | --- | --- | --- |
| CCOC(=O)c1c(CNCCN(CC)CC)n(C)c2cc(Br)c(OC(C)=O)cc12 | 309 | > 100 | 833 |
| COC(=O)C1=C(C)NC2=C(C(=O)CC(c3ccc(OC)c(OC)c3)C2)C1c1cccs1 (stereo not given) | 70.9 | > 100 | 130 |
| COc1ccc2nc(C)cc(NN=Cc3cccc(OC)c3O)c2c1 | 23.5 | 6.12 | 25.1 |
| CC(NCCCN(C)C)c1cc(C(C)(C)C)cc2c1CCC2(C)C (stereo not given) | 179 | 6.22 | 620 |
| COc1ccccc1-n1c(=O)c2c3c(sc2n2c(C)nnc12)CCC3 | > 1190 | > 10 | > 1250 |
| O=C(Nc1ccc(-c2nc3cc(-c4nc5ccccc5o4)ccc3[nH]2)cc1)c1ccc([N+](=O)[O-])cc1 | 1200 | > 10 | 1050 |
| CCN(CC)c1scc(-c2ccc(Br)cc2)[s+]1 | 541 | > 10 | 349 |
| O=S(=O)(NC1CCCC1)c1cccc2nonc12 | > 982 | > 10 | > 1600 |
| Cc1cc(N2CCN(C3CCCCC3)CC2)n2c(nc3ccccc32)c1C#N | 203 | > 100 | 63.5 |
| CN1CCN=C1c1ccc(NC(=O)c2ccc(C(=O)Nc3ccc(C4=NCCN4C)cc3)cc2)cc1 | 12 | > 10 | 91.1 |
| O=C(NCc1cc2cc3c(cc2nc1Cl)OCO3)c1ccco1 | > 1250 | > 10 | > 586 |
| O=C1CC(c2ccccc2)CC2=C1C(c1cccc(Cl)c1Cl)Nc1ccccc1N2 (stereo not given) | 464 | > 78.8 | 288 |
| COc1ccc(C=Cc2cc[n+](C)cc2)cc1OC | 1010 | > 100 | 1820 |
| C=C[C@H]1CN2CC[C@H]1C[C@H]2[C@H](OC(=O)c1ccc(F)cc1)c1ccnc2ccccc12 | < 8.08 | > 10 | 777 |
| CN=C1S/C(=C\c2ccc(OCC(=O)O)c(OC)c2)C(=O)N1C | > 703 | > 10 | > 1250 |
| COc1cccc(-c2nc3c(OC)ccc(OC)c3cc2CNCC(C)(C)CN(C)C)c1 | 186 | > 10 | 244 |
| Cc1ccccc1CNC(=O)c1oc2c(c1C)-c1[nH]ncc1CC2 | > 914 | > 10 | > 1250 |
| COc1cc2nc(NCc3cccnc3)n3nc(-c4ccccc4)nc3c2cc1OC | 148 | > 100 | 182 |

| SMILES | EC50 (Plasmodium falciparum [1]) [nM] | CC50 [2] [µM] | EC50 (Plasmodium falciparum [3]) [nM] |
| --- | --- | --- | --- |
| O=C(O)CC/C(=C1/C=C(c2ccc(Cl)cc2)NC1=O)c1ccc(Cl)cc1 | 256 | > 10 | > 1650 |
| CCCCCOc1ccc(/C=C2/N=C(c3ccccc3)OC2=O)cc1 | > 944 | > 10 | > 116 |
| COc1ccccc1/C=C/C1=NC(=C\c2ccc(SC)cc2)/C(=O)O1 | 228 | > 10 | > 1250 |
| CCc1ccc2[nH]c(=O)c(CN(CCO)C(=S)Nc3ccccc3CC)cc2c1 | 1910 | 48.1 | 2620 |
| COc1ccc(-n2nc3c(c2NC(=O)/C=C\c2cc(OC)c(OC)c(OC)c2)CSC3)cc1 | 85.7 | > 10 | > 752 |
| CCOc1ccc2[nH]c(=O)c(CN(CCc3ccccc3)C(=O)c3cnccn3)cc2c1 | > 397 | > 10 | > 428 |
| Cc1ccn2c(NC(C)(C)CC(C)(C)C)c(-c3ccccc3OC(=O)c3ccc(C(F)(F)F)cc3)nc2c1 | 19.9 | > 10 | 847 |
| O=C(NCc1ccccc1)NC1CC2CCCC(C1)N2Cc1ccccc1 (stereo not given) | 423 | > 10 | 879 |
| CCN1CCN(c2cc(C)c3cc(NC(=O)/C=C/c4cc(OC)ccc4OC)ccc3n2)CC1 | > 1250 | > 10 | 397 |
| CC[n+]1c(/C=C/c2ccc(SC)cc2)ccc2ccccc21 | 102 | > 10 | 43.6 |
| CCC(=O)N1CCc2cc(Br)cc(S(=O)(=O)N3CCCCC3CC)c21 (stereo not given) | 5700 | > 100 | 9980 |
| O=C(Cn1c2ccccc2c(=O)c2cc([N+](=O)[O-])ccc21)Nc1cccc(Cl)c1 | > 1250 | > 10 | > 880 |
| O=C(NCc1ccccc1)c1cnc(NCCCN2CCCC2)nc1NCC1CCCCC1 | > 1250 | > 10 | 733 |
| CC(C)CN1C(=O)N(CCCc2cccnc2)C(=O)C12CCN(C1CCOCC1)CC2 | 1420 | > 100 | > 12500 |
| O[C@@H]1[C@H]2c3cc4c(cc3CN3CCC(=C[C@@H]1O)[C@H]23)OCO4 | 361 | > 10 | 46.5 |
| CS(=O)(=O)c1ccccc1S(=O)(=O)N1CCC(NC(=O)c2ccccc2Cl)(C(=O)O)CC1 | > 725 | > 10 | > 1250 |
| CC(=NNC(=O)c1ccc(C)cc1)c1ccccn1 | 209 | > 100 | 350 |
